Measurements taken from patent US20160199361A1, “Method of Inducing An Anti-Retroviral Immune Response By Counter-Acting Retro-Virus Induced Anti-Apoptosis” (RUTGERS, THE STATE UNIVERSITY OF NEW JERSEY, priority 2013, published 2016).
“Also recorded” adds a separate entry of the source.

Columns and labels:
[1] = test system: HIV-1; settings: zidovudine monotherapy, reference range; cited from earlier work
[2] = test system: uninfected PBMCs; test: Apoptotic DNA fragmentation (TUNEL) in non-replenished short-term uninfected PBMC cultures; assay type: cell-based, human; settings: 30 μM, 144 hours
Protocol: (§1) Reagents and cells. Drug-grade deferiprone was kindly provided by Apotex (Toronto, Canada). PBMCs were isolated from the blood of healthy donors, per an IRB-approved protocol, and stimulated overnight with phytohemagglutinin (PHA) and human IL-2. […] Cultures were incubated at 37° C., 5% CO2, and 95% humidity. DNA fragmentation assay. Apoptotic DNA fragmentation was quantified flow-cytometrically, using a TUNEL (terminal deoxynucleotide transferase dUTP nick end-labeling) assay (APO-BRDU™; Phoenix Flow Systems; San Diego, Calif.).

[3] = test system: PBMCs acutely infected with HIV-1; test: Apoptotic DNA fragmentation (TUNEL) in non-replenished short-term PBMC cultures infected with HIV-1 isolate; assay type: cell-based, human
Protocol: as §1

[4] = test system: clinical isolates of HIV-1; test: HIV-1 p24 and HIV-1 RNA in isolate-infected, long-term replenished primary cell (PBMC) cultures; assay type: cell-based; settings: for number of infective virions produced: use without interruption for up to three weeks, unchanged at least three months after discontinuation; for p24 relative to controls: within two weeks, PBMCs stably infected with clinical isolates
Protocol: Reagents and cells. Drug-grade deferiprone was kindly provided by Apotex (Toronto, Canada). PBMCs were isolated from the blood of healthy donors, per an IRB-approved protocol, and stimulated overnight with phytohemagglutinin (PHA) and human IL-2. Stimulated cells were pelleted and resuspended for culture at a final concentration of 0.5×10^6 cells/ml in PHA-free RPMI 1640 medium containing 10% fetal calf serum (v/v), 100 units/ml penicillin G, 100 μg/ml streptomycin, 2 mM […], and 3.5 ng/ml human IL-2 (Medium B). Cultures were incubated at 37° C., 5% CO2, and 95% humidity.
To obtain clinical isolates of HIV-1, donors were consented to provide blood samples per an IRB-approved protocol. For infection, 5×10^6 uninfected stimulated PBMCs were co-cultured with 10×10^6 PBMCs from one of the HIV-infected donors in Medium B. On day 3, half of the supernatant was removed and replenished with an equal volume of fresh Medium B. On day 7, the medium was likewise replenished and 7.5×10^6 stimulated uninfected PBMCs were added. On days 10, 17, and 24, half of the supernatant was replenished. On days 14, 21, and 28, stimulated uninfected PBMCs were added. Cells were harvested when p24 reached 250 pg/ml, cryopreserved in freezing medium (90% fetal calf serum, 10% dimethyl sulfoxide), and stored in liquid nitrogen as infected PBMC stock. Cell-free supernatants were stored at −80° C.
(§2) To establish persistent infection of cultured PBMCs, uninfected cells (5×10^6 cells) and infected PBMC stock (0.5×10^6 cells) were co-incubated in a 25 ml culture flask at a final concentration of 0.22×10^6 cells/ml. Cultures were allowed to establish productive infection, defined by medium p24 at or above 250 pg/ml, and deferiprone was added. Cultures were replenished with Medium B and freshly isolated uninfected PBMCs on alternate days. For replacement of Medium B, half of the supernatant was gently exchanged without disturbing the cells, and the drug concentration was adjusted appropriately. For replacement with freshly isolated, stimulated and uninfected PBMCs, half of the cells and supernatant were removed and replaced with 2.5×10^6 cells in the proper volume of Medium B, with adjustment of the drug concentration. Cell-free supernatants were saved for p24 and viral RNA measurements.
(§3) Detection of p24, viral RNA, and viral DNA. p24 core antigen in the supernatant was quantified by ELISA (Retrotek HIV-1 p24™; ZeptoMetrix Corp.; Buffalo, N.Y.). HIV-1 RNA copy number in the supernatant of PBMC cultures and in plasma of patients enrolled in the exploratory deferiprone trial was determined with a PCR-based and FDA-approved assay (Amplicor HIV-1 Monitor™; Roche Diagnostics Corp.; Indianapolis, Ind.). For clinical samples, the assay was used per the Standard Specimen Processing Procedure (sensitivity limit 400 copies/ml); for cell culture samples, the assay was used in both the Standard Specimen Processing and the UltraSensitive Specimen Processing Procedure (sensitivity limit 50 copies/ml). The Roche Amplicor HIV-1 DNA Test (Roche Diagnostics Corp.; Indianapolis, Ind.) was used for qualitative detection of HIV-1 DNA.

[5] = test system: infected T-cell lines; test: Suppression of HIV-1 generation and selective induction of apoptosis in infected T-cell lines; assay type: cell-based
[6] = test system: HIV-1 DNA; test: Qualitative detection of HIV-1 DNA in infected replenished PBMC cultures; assay type: cell-based; settings: 200 μM, 10 days of post-cessation monitoring
Protocol: as §2
Detection of p24, viral RNA, and viral DNA. p24 core antigen in the supernatant was quantified by ELISA (Retrotek HIV-1 p24™; ZeptoMetrix Corp.; Buffalo, N.Y.). HIV-1 RNA copy number in the supernatant of PBMC cultures and in plasma of patients enrolled in the exploratory deferiprone trial was determined with a PCR-based and FDA-approved assay (Amplicor HIV-1 Monitor™; Roche Diagnostics Corp.; Indianapolis, Ind.). […]

[7] = test system: PBMCs; test: Cell viability and apoptotic volume decrease by trypan blue image analysis in replenished PBMC cultures; assay type: cell-based, human; settings: 200 μM
Protocol: Quantitation of cell number, viability, diameter, and apoptotic volume decrease. These parameters were measured in PBMC cultures by computerized image analysis of trypan blue exclusion (VI-CELL™; Beckman Coulter; Fullerton, Calif.).

[8] = test system: HIV-1; test: Exploratory pilot trial: plasma HIV-1 RNA in HIV-1-infected treatment-naive persons; assay type: in vivo, human
Protocol: as §3
Two oral dose levels of deferiprone were tested, 33 mg/kg (33 mg/kg QD on days 1 and 7, and 33 mg/kg TID on days 2-6 [seven asymptomatic HIV-infected antiretroviral-naive persons]) and 50 mg/kg (50 mg/kg QD on days 1 and 7, and 50 mg/kg TID on days 2-6 [six healthy volunteers and seven asymptomatic HIV-infected antiretroviral-naive persons, four of whom completed the treatment period]).
Each cohort was unblinded only at study completion. […] Secondary parameters included pharmacokinetic variables (e.g. peak serum concentration) in serum, drawn after initial drug ingestion at fixed hours (0, 0.5, 1, 1.5, 2, 3, 4, 6, 9, 12). […] Viral load was measured as described above.
For the cell culture experiments with deferiprone and the exploratory clinical trial, descriptive statistics were generated using Microsoft Excel 2011. In the exploratory trial, outcome analysis was performed to assess the intercohort and intraindividual virological response to deferiprone, using Student's t-test for log10-based analysis of the time-specified differentials (Δ log) between the cohort identified medians (±standard error of the mean [SEM]) generated from the multiple measurements per subject on treatment minus before treatment. (‘response’ in the first stage of the protocol) and off treatment minus before treatment (‘rebound’ in the second stage of the treatment). P<0.05 was used as criterion for statistical significance. […] To assess the in vivo antiretroviral activity of deferiprone in a hypothesis-independent manner, the Δ log of the HIV-1 RNA levels achieved in the first and the second stage of the protocol was analyzed after post-treatment segregation into ‘responders’ and ‘non-responders’ per the discontinuation trial design (DTD).

Cc1cn([C@H]2C[C@H](N=[N+]=[N-])[C@@H](CO)O2)c(=O)[nH]c1=O [zidovudine]
viral load decline on monotherapy [1]: −0.3 log10

Cc1cc(C2CCCCC2)n(O)c(=O)c1 [ciclopirox]
cells with fragmented DNA (apoptotic), uninfected treated cultures [2]: 24.1±3.2% | cells with fragmented DNA (apoptotic), infected treated cultures ([3]; 30 μM, 144 hours after inoculation): 71.8±8.8% | number of infective virions produced [4]: undetectable levels

Cc1c(O)c(=O)ccn1C [deferiprone, 3-hydroxy-1,2-dimethylpyridin-4(1H)-one]
concentration required for effective suppression of HIV-1 generation and selective induction of apoptosis [5]: at least 150 μM | induced apoptosis in infected versus uninfected PBMCs ([3]; 200 μM, non-replenished short-term cultures): significantly (P≦0.009) exceeded that in uninfected PBMCs | HIV-1 DNA in post-treatment cultures [6]: either negative or at the lower limit of detectability | rate of viral RNA rebound after cessation of drug ([4]; 100 μM, 35 days of treatment): +0.24 log10/ml/day | decrease of viral copy number versus set-point of controls ([4]; 100 μM, infected replenished cultures, weeks of treatment): decreased by just one log | p24 relative to controls ([4]; 100 μM): ≤ 10 % of controls | viral RNA nadir ([4]; 200 μM): 10^3 copies/ml | reduction of viral RNA copies versus infected untreated controls ([4]; 200 μM, 16-day treated cultures): reduced by three orders of magnitude | re-emergence of productive infection off-treatment ([4]; 200 μM, after 90 days off-treatment): no re-emergence of productive infection | decline of viral copy number ([4]; 200 μM, continuous treatment): falling by three logs | time to reach nadir of <10^3 copies/ml ([4]; 200 μM, depending on isolate - primary cell combination): 2-4 weeks | HIV-1 RNA rebound after drug discontinuation ([4]; 200 μM, off drug, replenished cultures): viral RNA rebound is absent off drug; also recorded: did not rebound | viral RNA after continued observed decline ([4]; 200 μM, post-treatment): < 10^2 copies/ml | p24 relative to controls ([4]; 200 μM): ≤ 10 % of controls | on-drug rate of viral RNA decline ([4]; 200 μM, appears to continue up to five days post cessation): −0.04 log10/ml/day | time for post-treatment rebound to reacquire set-point ([4]; after cessation of 100 μM): ≤ 72 h | p24 expression and viral copy number ([4]; below 100 μM): marginally affected | viral breakthrough ([4]; month-long monotherapy): did not elicit viral breakthrough | number of infective virions produced [4]: undetectable levels | apoptotic volume decrease [7]: not detectable | viability (trypan blue) [7]: ≥ 95% | Δ log10 HIV-1 RNA, acute decline coinciding with peak concentrations ≧150 μM ([8]; 50 mg/kg po TID group): −0.44±0.1 log10 | Δ log10 HIV-1 RNA D7 vs. D1, subjects with acute viral load decline ([8]; Group A, the 6 of 7 with decline): −0.42±0.05 log10 | subjects with acute viral load decline ([8]; Group A, ≧150 μM in serum): 6 of 7 | Δ log10 HIV-1 RNA D7 vs. D1 ([8]; Group A, ≧150 μM in serum, 33 or 50 mg/kg po TID, N=7): −0.40±0.1 log10 | Δ log10 HIV-1 RNA D7 vs. D1 ([8]; Group B, did not achieve ≧150 μM in serum, deferiprone N=4): +0.17±0.07 log10 | difference responders vs non-responders, Δ log10 D7 vs. D1 ([8]; end of first stage, 6 responders, 5 non-responders): 0.64 log10 | difference responders vs non-responders, Δ log D53 vs. D1 ([8]; end of second stage, 5 responders, 5 non-responders, off drug): 0.54 log | duration of persistent off-drug suppression as multiple of drug half-life ([8]; off-drug, human): ≥ 200 times the half-life | antiretrovirally effective in vivo threshold (serum concentration) ([8]; serum, 11 treated subjects, P=0.0152 Fisher's Exact test): ≥ 150 µM | acute responders that did not reacquire viral load baseline ([8]; seven weeks post-treatment after one-week pulse): 80%
